Experimental findings from ChEMBL document CHEMBL1201862, “PubChem BioAssay data set” (2004) are described below.

Some test systems named below: CCRF-CEM; COLO 205; DLD-1; DMS-114; DMS-273; EKVX; HCT-15; HL-60; HOP-62; MOLT-4; Malme-3M; NCI-H226; OVCAR-3; OVCAR-4; OVCAR-5; SF-268; SF-539; SNB-19; SR; UACC-257.
Experiment in all cases: NCI anticancer screen, dose series, 48 h

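In this assay, cells in 96-well plates receive the compound at five concentrations for 48 hours. Endpoints are linearly interpolated between the surrounding concentrations. Here, GI50 denotes the concentration required for 50% inhibition of growth.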 The source made the active and inactive calls. Rule as the data show it: active = GI50 up to about 1.1 µM and inactive = higher. Some results are limits rather than exact numbers.

As for `Nc1c(S(=O)(=O)c2ccccc2)c2nc3ccccc3nc2n2c1nc1ccccc12`, the GI50 is > 39.2 µM (inactive) in the assay with CCRF-CEM; > 100 µM (inactive) in the assay with COLO 205; > 86.1 µM (inactive) in the assay on DLD-1; > 69.3 µM (inactive) with DMS-114; 7.67 µM (inactive) in the assay on DMS-273; > 68.5 µM (inactive) in the assay on EKVX. Moreover, the GI50 in the assay with HCT-15 is 36.1 µM; in the assay with HL-60 it was > 100 µM (inactive); with HOP-62, 19.4 µM (inactive); with MOLT-4, > 29.4 µM (inactive); in the assay with Malme-3M it was 19.5 µM (inactive); in the assay with NCI-H226 it was 37.5 µM (inactive). In addition, the GI50 is > 25.4 µM (inactive) with OVCAR-3; 19.8 µM (inactive) in the assay on OVCAR-4; > 100 µM (inactive) in the assay with OVCAR-5; > 45.3 µM (inactive) in the assay with SF-268; 11.1 µM (inactive) in the assay on SF-539; > 51.8 µM (inactive) in the assay on SNB-19. Also, the results for the GI50 in the assay with SR and in the assay with UACC-257 were > 71.6 µM (inactive) and > 51.5 µM (inactive), respectively.
Consider `CCCCCCC1=NOC(C(c2cc[nH]c2)N(C)[C@H](C(=O)OC)C(C)C)C1` (some centres not stated), for which the GI50 in the assay on CCRF-CEM is 16.7 µM (inactive); in the assay on COLO 205, 15.3 µM (inactive); in the assay with DLD-1, 34.1 µM (inactive); with DMS-114 it was 33.3 µM (inactive); in the assay with DMS-273, 25.8 µM (inactive); in the assay on EKVX, 19.8 µM (inactive). The GI50 is 27.3 µM (inactive) in the assay on HL-60; > 100 µM (inactive) with HOP-62; 19.4 µM (inactive) with MOLT-4; 70.1 µM (inactive) with Malme-3M; 51.1 µM (inactive) in the assay on NCI-H226; 25.4 µM (inactive) in the assay with OVCAR-3. Also, the GI50 in the assay with OVCAR-4 was 39 µM (inactive); in the assay on OVCAR-5, > 100 µM (inactive); in the assay on SF-268 it was > 100 µM (inactive); in the assay with SF-539 it was 57 µM (inactive); in the assay on SNB-19 it was 65.9 µM (inactive); with SR, 23.6 µM (inactive). Moreover, in the assay on UACC-257, the GI50 is 37.7 µM (inactive).
Turning to `CCOC(=O)C12CCCC1(O)N(NC(=O)c1cccc(Cl)c1)C(C)=C2C(=O)OC` (configuration not stated), the GI50 was > 100 µM (inactive) in the assay on DLD-1; > 100 µM (inactive) in the assay on DMS-114; 56.2 µM (inactive) in the assay on DMS-273; 56.6 µM (inactive) with EKVX; greater than 100 µM in the assay on HCT-15; > 100 µM (inactive) in the assay with HL-60. Also, the GI50 is > 100 µM (inactive) with HOP-62; 55.7 µM (inactive) with MOLT-4; > 100 µM (inactive) in the assay on Malme-3M; > 100 µM (inactive) in the assay on NCI-H226; > 100 µM (inactive) in the assay on OVCAR-3; > 100 µM (inactive) with OVCAR-4. Further, the GI50 was > 100 µM (inactive) in the assay on OVCAR-5; > 100 µM (inactive) in the assay with SF-268; > 100 µM (inactive) in the assay on SF-539; > 100 µM (inactive) in the assay with SNB-19; 53 µM (inactive) in the assay with SR; 69.5 µM (inactive) with UACC-257.
`COC(=O)c1cccn1C(=O)n1cccc1`: the GI50 in the assay on CCRF-CEM, with COLO 205, in the assay on DLD-1, in the assay on DMS-114, with DMS-273 and in the assay on EKVX was > 100 µM (inactive) in each case. Moreover, the GI50 in the assay on HL-60, with HOP-62, in the assay with MOLT-4, in the assay with Malme-3M, with NCI-H226 and in the assay with OVCAR-3 was > 100 µM (inactive) throughout. Moreover, the GI50 in the assay with OVCAR-4, in the assay on OVCAR-5, in the assay on SF-268, with SF-539, in the assay on SNB-19 and in the assay on SR was > 100 µM (inactive) in each case. The GI50 with UACC-257 is > 100 µM (inactive).
As for `CCN(CC)CC(=O)NC1c2ccccc2Oc2c(C)cccc21` (configuration not stated), the GI50 was > 100 µM (inactive) with CCRF-CEM; > 100 µM (inactive) in the assay on COLO 205; 81.3 µM (inactive) in the assay on DLD-1; > 100 µM (inactive) in the assay with DMS-114; > 100 µM (inactive) with DMS-273; > 100 µM (inactive) in the assay on EKVX. Further, the GI50 in the assay on HCT-15 was greater than 100 µM; in the assay on HL-60 it was 37.7 µM (inactive); in the assay with HOP-62 it was > 100 µM (inactive); in the assay with MOLT-4, 62.7 µM (inactive); with NCI-H226, > 100 µM (inactive); in the assay on OVCAR-4 it was > 100 µM (inactive). In addition, the GI50 was > 100 µM (inactive) in the assay with OVCAR-5; > 100 µM (inactive) with SF-268; > 100 µM (inactive) with SF-539; > 100 µM (inactive) with SNB-19; 57.7 µM (inactive) in the assay with SR; > 100 µM (inactive) in the assay on UACC-257.
For the molecule `CC(=O)C1CCN(c2ccccc2)C1` (configuration not stated), the GI50 with CCRF-CEM, in the assay on DLD-1, in the assay with DMS-114, in the assay with DMS-273, in the assay with EKVX and in the assay on HL-60 was > 100 µM (inactive) throughout. For the same molecule, the GI50 in the assay with HOP-62, in the assay on MOLT-4, in the assay on NCI-H226, with OVCAR-3, with OVCAR-4 and in the assay with OVCAR-5 was > 100 µM (inactive) each time. For the same molecule, the GI50 with SF-268, in the assay with SF-539, in the assay with SNB-19, with SR and with UACC-257 was > 100 µM (inactive) in each case.
`N#CC12Cc3ccc4c(c3-c3cccc(c31)CCN2C(=O)c1ccccc1)OCO4` (configuration not stated): the GI50 in the assay on CCRF-CEM, in the assay with COLO 205, in the assay on DLD-1, in the assay with DMS-114, in the assay on DMS-273 and with EKVX was > 100 µM (inactive) in each case. Moreover, the GI50 in the assay with HCT-15 was greater than 100 µM; with HL-60, > 100 µM (inactive); with HOP-62, > 100 µM (inactive); in the assay with MOLT-4 it was > 100 µM (inactive); in the assay with Malme-3M, 64 µM (inactive); in the assay on NCI-H226, > 100 µM (inactive). For the same molecule, the GI50 with OVCAR-3, with OVCAR-5, in the assay on SF-268, with SF-539, in the assay on SNB-19 and with SR was > 100 µM (inactive) each time. For the same molecule, the GI50 in the assay with UACC-257 is > 100 µM (inactive).
On to `O=CC1=CCC2c3[nH]c4ccccc4c3CCN2C1` (configuration not stated), for which the GI50 in the assay on CCRF-CEM was 107 µM (inactive); with COLO 205, 232 µM (inactive); in the assay with DLD-1, 85.5 µM (inactive); in the assay with DMS-114 it was 74.3 µM (inactive); in the assay on DMS-273, 82.4 µM (inactive); in the assay on EKVX, > 396 µM (inactive). Moreover, the GI50 in the assay on HCT-15 is 68.1 µM; with HL-60, 77.6 µM (inactive); in the assay with HOP-62, > 39.6 µM (inactive); in the assay on MOLT-4, 90.2 µM (inactive); in the assay with Malme-3M it was 296 µM (inactive); in the assay with NCI-H226 it was 117 µM (inactive). Besides, the GI50 is 92.5 µM (inactive) with OVCAR-3; > 396 µM (inactive) in the assay on OVCAR-5; 167 µM (inactive) in the assay with SF-268; 175 µM (inactive) in the assay with SF-539; 258 µM (inactive) in the assay with SNB-19; 105 µM (inactive) with SR. The GI50 in the assay with UACC-257 is 98.9 µM (inactive).
In the case of `COC(=O)C1CCC2(C)[C@H](CCC3O[C@]32C)[C@@]1(C)CC(=O)c1ccoc1` (some centres not stated), the GI50 in the assay on CCRF-CEM was 31.1 µM (inactive); in the assay on COLO 205, > 100 µM (inactive); with DLD-1, > 100 µM (inactive); in the assay on DMS-114 it was 46.1 µM (inactive); in the assay with DMS-273 it was > 100 µM (inactive); in the assay on EKVX it was 18.7 µM (inactive). Moreover, the GI50 in the assay on HCT-15 was 81.1 µM; in the assay on HL-60, 75 µM (inactive); in the assay with HOP-62, > 100 µM (inactive); in the assay with MOLT-4, 28.3 µM (inactive); in the assay on Malme-3M, > 100 µM (inactive); with NCI-H226, > 100 µM (inactive). For the same molecule, the GI50 in the assay with OVCAR-3 was > 100 µM (inactive); in the assay with OVCAR-4 it was > 100 µM (inactive); in the assay with OVCAR-5, > 100 µM (inactive); in the assay with SF-268 it was 48.4 µM (inactive); with SF-539 it was > 100 µM (inactive); in the assay with SNB-19 it was 33.9 µM (inactive). In addition, the GI50 was 41.5 µM (inactive) with SR and > 100 µM (inactive) with UACC-257.
Turning to `COC(=O)CC(C(C(C)=O)C(=O)OCc1ccccc1)N1C(=O)OCC1c1ccccc1` (configuration not stated), the GI50 with CCRF-CEM is > 100 µM (inactive); with COLO 205, > 100 µM (inactive); with DLD-1, 47.2 µM (inactive); with DMS-114, 52 µM (inactive); in the assay on DMS-273, > 100 µM (inactive); in the assay with EKVX it was > 100 µM (inactive). Besides, the GI50 is greater than 100 µM in the assay on HCT-15; 91.6 µM (inactive) in the assay with HL-60; > 100 µM (inactive) with HOP-62; 45.9 µM (inactive) in the assay on MOLT-4; > 100 µM (inactive) with Malme-3M; 60.5 µM (inactive) in the assay with NCI-H226. The GI50 was 87.9 µM (inactive) in the assay on OVCAR-3; 71.3 µM (inactive) in the assay on OVCAR-4; > 100 µM (inactive) in the assay on SF-268; > 100 µM (inactive) in the assay on SF-539; > 100 µM (inactive) with SNB-19; 74.5 µM (inactive) in the assay with SR. Also, in the assay with UACC-257, the GI50 was 93.5 µM (inactive).
On to `COC(=O)C1CC(=O)O[C@H]1c1ccc(OC)c(OC)c1` (some centres not stated), for which the GI50 in the assay on CCRF-CEM, with COLO 205, with DLD-1, in the assay with DMS-114, in the assay with DMS-273 and with EKVX was > 100 µM (inactive) each time. Besides, the GI50 with HCT-15 was greater than 100 µM; in the assay on HL-60, > 100 µM (inactive); in the assay with HOP-62, > 100 µM (inactive); with MOLT-4 it was > 100 µM (inactive); with Malme-3M, > 100 µM (inactive); with NCI-H226, > 100 µM (inactive). Moreover, the GI50 with OVCAR-3, in the assay on OVCAR-4, with OVCAR-5, in the assay with SF-268, in the assay with SF-539 and in the assay with SR was > 100 µM (inactive) throughout. Besides, the GI50 in the assay with UACC-257 was > 100 µM (inactive).
